Source: ChEMBL document CHEMBL5465560, “Selectivity Literature for EUbOPEN Chemogenomic Library” (2024)

Experiments:
[1] = biological target: Histone-lysine N-methyltransferase, H3 lysine-36 specific (Homo sapiens) (UniProt Q96L73); assay: Selectivity interaction (Methyltransferase screen (radiometric assays, panel of 8 PRMTs, 21 protein lysine methyltransferases, 3 DNA methyltransferases, and one RNA methyltransferase)) EUB0000272b NSD1
[2] = biological target: T1, Mitogen-activated protein kinase 13 (Homo sapiens) (UniProt O15264); assay: Selectivity interaction (KinomeScan (DiscoverX)) EUB0000666a MAPK13; conditions: at 10 µM
T1 sequence (whole entry): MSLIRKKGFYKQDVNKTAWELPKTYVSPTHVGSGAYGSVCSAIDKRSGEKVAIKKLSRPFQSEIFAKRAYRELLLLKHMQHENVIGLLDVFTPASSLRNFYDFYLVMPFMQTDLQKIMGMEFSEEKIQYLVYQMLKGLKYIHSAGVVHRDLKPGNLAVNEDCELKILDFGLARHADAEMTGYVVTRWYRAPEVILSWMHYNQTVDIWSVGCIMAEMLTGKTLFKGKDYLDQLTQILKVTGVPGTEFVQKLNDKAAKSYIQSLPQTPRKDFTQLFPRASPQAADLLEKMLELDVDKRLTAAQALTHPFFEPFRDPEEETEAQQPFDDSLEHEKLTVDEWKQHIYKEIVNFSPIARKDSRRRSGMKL

[3] = biological target: Tyrosine-protein kinase Srms (Homo sapiens) (UniProt Q9H3Y6); assay: Selectivity interaction (Kinase panel (Eurofins)) EUB0001564a SRMS; conditions: at 1 µM
Chain of Tyrosine-protein kinase Srms (Homo sapiens) (Q9H3Y6 whole entry): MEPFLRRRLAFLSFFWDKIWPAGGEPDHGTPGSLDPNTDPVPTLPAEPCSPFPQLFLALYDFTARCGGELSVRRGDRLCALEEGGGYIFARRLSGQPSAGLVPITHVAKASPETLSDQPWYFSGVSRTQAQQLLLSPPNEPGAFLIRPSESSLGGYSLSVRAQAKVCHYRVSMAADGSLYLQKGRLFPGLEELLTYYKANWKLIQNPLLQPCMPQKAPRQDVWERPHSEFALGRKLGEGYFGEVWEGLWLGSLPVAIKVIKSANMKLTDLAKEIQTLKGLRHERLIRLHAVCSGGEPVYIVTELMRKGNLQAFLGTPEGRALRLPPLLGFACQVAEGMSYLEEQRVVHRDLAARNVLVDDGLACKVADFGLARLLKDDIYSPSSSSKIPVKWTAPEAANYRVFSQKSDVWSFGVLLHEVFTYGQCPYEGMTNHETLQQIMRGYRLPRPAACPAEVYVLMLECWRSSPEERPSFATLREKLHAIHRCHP

Aurora kinase B = Aurora kinase B (Homo sapiens, UniProt Q96GD4); assay: Selectivity interaction (ActivX KiNativ screen (kinase selectivity in THP-1 cell lysates)) EUB0000639a AURKB; type: subcellular; conditions: lysate
Chain of Aurora kinase B (Q96GD4 whole entry): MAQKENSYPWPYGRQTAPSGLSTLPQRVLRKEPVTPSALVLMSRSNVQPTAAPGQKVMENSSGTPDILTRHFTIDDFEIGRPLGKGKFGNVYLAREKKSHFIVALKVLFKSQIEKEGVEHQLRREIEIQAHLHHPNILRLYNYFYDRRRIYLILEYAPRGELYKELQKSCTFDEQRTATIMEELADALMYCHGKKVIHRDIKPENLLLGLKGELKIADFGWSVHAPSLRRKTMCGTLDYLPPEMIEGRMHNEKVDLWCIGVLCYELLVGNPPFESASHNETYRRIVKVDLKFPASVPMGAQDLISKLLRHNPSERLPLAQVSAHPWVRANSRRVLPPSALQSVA

[4] = biological target: Acetylcholinesterase (Homo sapiens) (UniProt P22303); assay: Selectivity interaction (Panel of non-epigenetic targets (kinases, GPCRs, ion channels, and transporters, Eurofins) ) EUB0000271b ACHE; conditions: at 1 µM
Chain of Acetylcholinesterase (Homo sapiens) (P22303 whole entry): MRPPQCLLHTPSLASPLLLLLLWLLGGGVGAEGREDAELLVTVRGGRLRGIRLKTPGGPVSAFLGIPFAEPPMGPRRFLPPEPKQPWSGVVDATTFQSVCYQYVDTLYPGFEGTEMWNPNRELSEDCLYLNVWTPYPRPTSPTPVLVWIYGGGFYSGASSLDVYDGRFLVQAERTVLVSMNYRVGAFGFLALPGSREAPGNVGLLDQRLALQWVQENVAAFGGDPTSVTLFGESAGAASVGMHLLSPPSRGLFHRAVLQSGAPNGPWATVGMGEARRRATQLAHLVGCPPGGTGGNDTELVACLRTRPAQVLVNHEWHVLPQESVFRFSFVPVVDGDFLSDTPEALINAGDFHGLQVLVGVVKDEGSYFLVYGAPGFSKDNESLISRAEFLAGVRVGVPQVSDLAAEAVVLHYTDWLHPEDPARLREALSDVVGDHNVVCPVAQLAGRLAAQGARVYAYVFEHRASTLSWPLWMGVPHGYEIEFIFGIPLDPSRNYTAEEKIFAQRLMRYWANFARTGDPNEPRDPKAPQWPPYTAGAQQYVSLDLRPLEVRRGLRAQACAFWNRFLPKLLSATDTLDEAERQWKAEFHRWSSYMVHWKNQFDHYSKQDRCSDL

[5] = biological target: T2, Histone-lysine N-methyltransferase SUV39H1 (Homo sapiens) (UniProt O43463); assay: Selectivity interaction (Methyltransferase screen (radiometric assays, panel of 8 PRMTs, 21 protein lysine methyltransferases, 3 DNA methyltransferases, and one RNA methyltransferase)) EUB0000271b SUV39H1
T2 sequence (whole entry): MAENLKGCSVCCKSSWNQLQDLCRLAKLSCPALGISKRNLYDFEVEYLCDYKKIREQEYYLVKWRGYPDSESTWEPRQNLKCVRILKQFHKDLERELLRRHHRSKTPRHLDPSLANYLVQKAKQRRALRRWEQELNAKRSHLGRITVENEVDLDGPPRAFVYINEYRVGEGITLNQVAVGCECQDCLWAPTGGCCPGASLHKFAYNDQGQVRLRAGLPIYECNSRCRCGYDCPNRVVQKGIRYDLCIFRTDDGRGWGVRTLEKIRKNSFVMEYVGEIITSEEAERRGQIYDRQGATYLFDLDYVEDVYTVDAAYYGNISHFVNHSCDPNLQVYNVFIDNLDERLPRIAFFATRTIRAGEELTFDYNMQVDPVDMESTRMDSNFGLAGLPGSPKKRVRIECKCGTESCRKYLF

[6] = biological target: Interleukin-1 receptor-associated kinase 1 (Homo sapiens) (UniProt P51617); assay: Selectivity interaction (KinomeScan (DiscoverX)) EUB0000695a IRAK1; conditions: at 100 nM
Chain of Interleukin-1 receptor-associated kinase 1 (Homo sapiens) (P51617 whole entry, looked up): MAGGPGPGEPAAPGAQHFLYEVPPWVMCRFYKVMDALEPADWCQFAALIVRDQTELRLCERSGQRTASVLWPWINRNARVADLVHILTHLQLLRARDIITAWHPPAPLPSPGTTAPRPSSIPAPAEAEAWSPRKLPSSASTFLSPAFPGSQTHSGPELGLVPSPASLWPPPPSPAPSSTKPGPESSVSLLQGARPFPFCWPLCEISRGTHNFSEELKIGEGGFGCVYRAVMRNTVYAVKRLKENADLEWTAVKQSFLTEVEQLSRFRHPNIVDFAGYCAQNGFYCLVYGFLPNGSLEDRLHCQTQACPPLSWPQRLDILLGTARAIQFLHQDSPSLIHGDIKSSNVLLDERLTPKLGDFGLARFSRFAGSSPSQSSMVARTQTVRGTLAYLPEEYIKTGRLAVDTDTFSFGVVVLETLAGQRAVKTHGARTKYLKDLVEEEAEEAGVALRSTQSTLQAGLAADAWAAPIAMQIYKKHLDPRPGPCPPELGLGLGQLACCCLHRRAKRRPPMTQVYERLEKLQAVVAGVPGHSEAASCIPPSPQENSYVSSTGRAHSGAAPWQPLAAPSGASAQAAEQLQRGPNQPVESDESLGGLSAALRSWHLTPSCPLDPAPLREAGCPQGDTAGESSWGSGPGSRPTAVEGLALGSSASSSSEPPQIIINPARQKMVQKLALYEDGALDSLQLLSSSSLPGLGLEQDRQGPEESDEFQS

[7] = biological target: Proto-oncogene tyrosine-protein kinase Src (Homo sapiens, UniProt P12931); assay: Selectivity interaction (KinomeScan (DiscoverX)) EUB0000595a SRC; conditions: at 10 µM
[8] = biological target: T3, Tyrosine-protein kinase TXK (Homo sapiens) (UniProt P42681); assay: Selectivity interaction (KinomeScan (DiscoverX)) EUB0000045b TXK
T3 sequence (whole entry): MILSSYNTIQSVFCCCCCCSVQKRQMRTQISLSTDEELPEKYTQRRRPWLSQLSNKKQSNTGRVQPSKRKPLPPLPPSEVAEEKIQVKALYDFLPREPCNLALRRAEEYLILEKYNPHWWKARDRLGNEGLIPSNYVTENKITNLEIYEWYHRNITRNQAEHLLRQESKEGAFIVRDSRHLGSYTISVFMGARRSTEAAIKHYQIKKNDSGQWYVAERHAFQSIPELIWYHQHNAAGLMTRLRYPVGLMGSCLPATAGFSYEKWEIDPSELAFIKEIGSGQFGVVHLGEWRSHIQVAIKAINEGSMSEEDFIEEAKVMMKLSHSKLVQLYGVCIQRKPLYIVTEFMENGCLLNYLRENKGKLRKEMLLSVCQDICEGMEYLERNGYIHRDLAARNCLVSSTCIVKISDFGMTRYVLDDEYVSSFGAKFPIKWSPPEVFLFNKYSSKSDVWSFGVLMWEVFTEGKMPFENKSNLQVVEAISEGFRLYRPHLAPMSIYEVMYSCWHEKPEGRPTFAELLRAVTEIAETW

[9] = biological target: T4, Discoidin domain-containing receptor 2 (Homo sapiens) (UniProt Q16832); assay: Selectivity interaction (KinomeScan (DiscoverX)) EUB0001079a DDR2; conditions: at 1 µM
T4 sequence (whole entry): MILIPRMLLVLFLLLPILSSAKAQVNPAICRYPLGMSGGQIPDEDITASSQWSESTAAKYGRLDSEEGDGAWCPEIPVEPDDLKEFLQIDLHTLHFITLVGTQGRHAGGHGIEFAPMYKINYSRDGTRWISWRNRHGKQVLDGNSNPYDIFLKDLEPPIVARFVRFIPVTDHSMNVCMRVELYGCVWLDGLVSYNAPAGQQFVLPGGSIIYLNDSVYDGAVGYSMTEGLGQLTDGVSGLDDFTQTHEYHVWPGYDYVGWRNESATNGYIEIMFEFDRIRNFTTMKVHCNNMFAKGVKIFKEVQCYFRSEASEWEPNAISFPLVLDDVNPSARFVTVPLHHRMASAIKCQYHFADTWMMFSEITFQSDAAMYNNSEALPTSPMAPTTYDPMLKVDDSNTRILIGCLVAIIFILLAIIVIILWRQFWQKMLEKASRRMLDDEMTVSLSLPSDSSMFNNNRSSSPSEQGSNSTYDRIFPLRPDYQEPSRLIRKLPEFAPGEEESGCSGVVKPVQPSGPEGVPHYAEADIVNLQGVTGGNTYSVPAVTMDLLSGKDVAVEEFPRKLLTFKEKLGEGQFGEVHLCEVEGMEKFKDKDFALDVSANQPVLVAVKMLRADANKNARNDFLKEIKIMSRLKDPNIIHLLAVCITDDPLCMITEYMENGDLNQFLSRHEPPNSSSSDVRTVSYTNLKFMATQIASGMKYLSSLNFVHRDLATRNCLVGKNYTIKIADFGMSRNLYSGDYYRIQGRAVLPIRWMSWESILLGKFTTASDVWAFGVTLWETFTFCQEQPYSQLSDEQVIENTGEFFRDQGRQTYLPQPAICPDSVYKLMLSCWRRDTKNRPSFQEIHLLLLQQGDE

Chain of Histone-lysine N-methyltransferase, H3 lysine-36 specific (Homo sapiens) (Q96L73 whole entry): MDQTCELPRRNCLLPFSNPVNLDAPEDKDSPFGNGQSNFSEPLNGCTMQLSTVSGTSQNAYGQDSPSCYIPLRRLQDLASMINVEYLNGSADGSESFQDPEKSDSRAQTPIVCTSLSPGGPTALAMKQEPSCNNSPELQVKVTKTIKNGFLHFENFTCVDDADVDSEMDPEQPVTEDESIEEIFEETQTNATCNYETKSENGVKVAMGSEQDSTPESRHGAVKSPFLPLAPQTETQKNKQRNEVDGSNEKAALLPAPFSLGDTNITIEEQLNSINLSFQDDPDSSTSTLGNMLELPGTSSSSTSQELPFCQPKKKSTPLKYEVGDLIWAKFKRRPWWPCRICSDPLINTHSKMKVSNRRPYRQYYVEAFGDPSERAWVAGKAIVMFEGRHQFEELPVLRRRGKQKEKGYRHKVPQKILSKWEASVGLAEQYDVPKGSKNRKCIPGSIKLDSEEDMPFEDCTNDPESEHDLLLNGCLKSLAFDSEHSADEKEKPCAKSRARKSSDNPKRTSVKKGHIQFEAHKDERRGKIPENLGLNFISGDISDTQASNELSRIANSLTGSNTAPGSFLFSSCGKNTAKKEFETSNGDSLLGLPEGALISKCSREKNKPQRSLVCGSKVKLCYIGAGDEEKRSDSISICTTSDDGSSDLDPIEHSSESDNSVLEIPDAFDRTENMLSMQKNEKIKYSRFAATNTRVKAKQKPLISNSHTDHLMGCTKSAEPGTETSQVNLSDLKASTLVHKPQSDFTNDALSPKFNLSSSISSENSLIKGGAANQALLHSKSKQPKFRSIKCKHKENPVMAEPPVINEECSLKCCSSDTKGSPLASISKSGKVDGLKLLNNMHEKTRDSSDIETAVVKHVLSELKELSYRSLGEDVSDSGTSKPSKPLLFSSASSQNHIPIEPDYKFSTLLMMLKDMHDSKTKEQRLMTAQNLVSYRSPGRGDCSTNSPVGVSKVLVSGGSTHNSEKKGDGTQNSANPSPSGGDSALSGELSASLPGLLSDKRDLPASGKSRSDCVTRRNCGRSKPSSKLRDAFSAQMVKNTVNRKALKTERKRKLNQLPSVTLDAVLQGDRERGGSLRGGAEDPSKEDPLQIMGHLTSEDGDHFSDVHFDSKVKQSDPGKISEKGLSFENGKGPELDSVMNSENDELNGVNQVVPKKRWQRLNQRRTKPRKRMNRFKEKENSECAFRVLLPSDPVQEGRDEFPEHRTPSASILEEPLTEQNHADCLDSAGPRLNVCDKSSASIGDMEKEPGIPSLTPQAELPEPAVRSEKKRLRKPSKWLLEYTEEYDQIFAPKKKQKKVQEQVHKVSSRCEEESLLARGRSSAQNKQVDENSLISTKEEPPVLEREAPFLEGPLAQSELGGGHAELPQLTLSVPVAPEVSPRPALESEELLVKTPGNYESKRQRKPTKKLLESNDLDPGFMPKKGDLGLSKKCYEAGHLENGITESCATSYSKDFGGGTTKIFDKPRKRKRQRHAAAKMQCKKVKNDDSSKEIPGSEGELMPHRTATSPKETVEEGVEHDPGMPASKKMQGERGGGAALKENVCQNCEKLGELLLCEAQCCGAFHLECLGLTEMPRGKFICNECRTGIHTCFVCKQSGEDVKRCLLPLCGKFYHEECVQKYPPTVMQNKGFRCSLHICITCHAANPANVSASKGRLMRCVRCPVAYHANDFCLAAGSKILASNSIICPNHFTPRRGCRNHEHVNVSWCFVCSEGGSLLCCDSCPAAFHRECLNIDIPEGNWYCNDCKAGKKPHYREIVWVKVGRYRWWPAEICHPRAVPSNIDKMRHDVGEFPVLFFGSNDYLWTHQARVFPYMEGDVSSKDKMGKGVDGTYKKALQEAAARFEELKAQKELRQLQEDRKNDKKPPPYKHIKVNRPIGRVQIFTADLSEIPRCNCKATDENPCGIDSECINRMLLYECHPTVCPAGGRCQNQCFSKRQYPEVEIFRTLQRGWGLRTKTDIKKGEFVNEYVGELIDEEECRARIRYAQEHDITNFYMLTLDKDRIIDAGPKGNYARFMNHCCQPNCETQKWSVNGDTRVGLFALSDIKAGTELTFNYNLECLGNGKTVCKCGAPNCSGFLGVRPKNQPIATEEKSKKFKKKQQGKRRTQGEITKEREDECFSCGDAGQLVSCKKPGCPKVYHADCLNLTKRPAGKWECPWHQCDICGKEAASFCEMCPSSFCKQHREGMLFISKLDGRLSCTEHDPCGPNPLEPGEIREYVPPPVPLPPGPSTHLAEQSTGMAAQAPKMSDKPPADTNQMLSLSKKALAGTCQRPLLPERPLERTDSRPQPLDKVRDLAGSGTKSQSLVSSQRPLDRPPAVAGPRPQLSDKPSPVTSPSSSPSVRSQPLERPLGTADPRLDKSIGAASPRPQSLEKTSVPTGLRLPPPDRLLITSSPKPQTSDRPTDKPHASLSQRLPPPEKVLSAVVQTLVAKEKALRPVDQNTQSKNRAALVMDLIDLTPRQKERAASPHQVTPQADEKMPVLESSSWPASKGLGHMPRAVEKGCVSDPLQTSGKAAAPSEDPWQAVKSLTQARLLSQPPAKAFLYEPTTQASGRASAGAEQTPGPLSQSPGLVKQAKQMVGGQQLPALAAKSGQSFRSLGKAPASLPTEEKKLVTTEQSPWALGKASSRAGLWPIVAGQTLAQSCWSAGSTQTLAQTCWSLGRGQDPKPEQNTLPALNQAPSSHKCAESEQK

Compound: Cc1cc(C)cc([C@H]2c3cc(C)ccc3NC(=O)CN2C(=O)c2ccc(Br)s2)c1
- % of activity ([1]; at 1 µM): 100%
- % of activity ([1]; at 10 µM): 102%

Compound: O=C(NOC[C@H](O)CO)c1ccc(F)c(F)c1Nc1ccc(I)cc1F
- % of control [2]: 6.1%

Compound: CC[C@@H](Nc1c(C#N)c(-c2ccc(-c3cccc(C)c3F)cc2)nc2cnccc12)C(=O)O [BAY-091]
- % of inhibition [3]: 26.3%

Compound: CC[C@@H]1[C@H](F)C(=O)N[C@@H]1COc1nccc2cc(C(N)=O)c(OC)cc12 [ZIMLOVISERTIB]
- % of inhibition (Aurora kinase B; at 0.01 µM): 9.7%
- % of inhibition (Aurora kinase B; at 0.04 µM): 3.4%
- % of inhibition (Aurora kinase B; at 0.2 µM): 11.1%
- % of inhibition (Aurora kinase B; at 1 µM): 32.2%
- % of inhibition (Aurora kinase B; at 5 µM): 63.1%

Compound: Cc1cc(C)cc([C@@H]2c3cc(C)ccc3NC(=O)CN2C(=O)c2ccc(Br)s2)c1
- % of inhibition [4]: 7%
- % of activity ([5]; at 1 µM): 96.7%
- % of activity ([5]; at 10 µM): 91.3%

Compound: Cc1cc(F)c(C(=O)Nc2cccc(-c3nncn3C(C)C)n2)cc1-n1cnc(C2CC2)c1
- % of control [6]: 96%

Compound: COCC(=O)NC/C=C/c1ccc2ncnc(Nc3ccc(Oc4ccc(C)nc4)c(C)c3)c2c1 [CP-724714]
- % of control [7]: 97%

Compound: C=CC(=O)Nc1cc(-n2c(=O)ccc3cnc4ccc(-c5ccc(NS(C)(=O)=O)cc5)cc4c32)ccc1C
- % of control ([8]; at 1 µM): 25%
- % of control ([8]; at 10 µM): 2.6%

Compound: Nc1cnc(N2CCc3cc(S(=O)(=O)Nc4c(F)cc(Cl)cc4F)cc(N4CCCC4=O)c32)nc1 [TP-020n]
- % of control [9]: 100%
